Assay results from patent US10392385B2, “N-((1-phenyl-9H-pyrido[3,4-b]indol-3-yl)methyl)cinnamamides as potential anticancer agents and preparation thereof” (Council of Scientific & Industrial Research, priority 2016, dated 2019).

Columns and labels:
HeLa = conditions: cervical cancer; 48 h of drug treatment; average of three experiments; cited from earlier work
A549 = conditions: lung cancer; 48 h of drug treatment; average of three experiments; cited from earlier work
MCF-7 = conditions: breast cancer; 48 h of drug treatment; average of three experiments; cited from earlier work
B16 (melanoma) = assay: MTT cytotoxicity assay, B16; assay type: cell-based; conditions: 48 h of drug treatment (footnote), average of three experiments
Excerpt: (§1) The N-((1-phenyl-9H-pyrido[3,4-b]indol-3-yl)methyl)cinnamamides (1a-h, 2a-h and 3a-h) have been tested against five human cancer cell lines such as A549 (lung cancer), MCF-7 (breast cancer), B16 (melanoma), HeLa (cervical cancer) and NIH3T3 (mouse embryonic fibroblast cancer). All the cancer cell lines (HeLa, A549, MCF-7 and B16) were procured from National Centre for Cell Sciences (NCCS, Pune, India) and NIH 3T3 cell line was obtained from American Type Culture Collection (Rockville, Md., USA). Stock cells were cultured in DMEM supplemented with 10% Fetal Bovine Serum (FBS), in an humidified atmosphere of 5% CO2 at 37° C. until they are 80% confluent. To study the cytotoxicity of the compounds, after 80% confluence, cells were trypsinized with 0.1% trypsin-EDTA and harvested by centrifugation at 500×g. Serial dilutions of cells were made from 1×10^6 to 1×10^3 cells per mL The cells were seeded in triplicate in a 96 well plate. The cells were seeded in triplicate in a 96 well plate. […] The cell viability was determined by measuring the ability of cells to transform MTT to a purple coloured formazan dye. The absorbance of samples at 570 nm was measured using a UV-Visible spectrophotometer. Percentage of viable cells was calculated by using the formula given below.
(§2) Where the OD570 (sample) corresponds to absorbance obtained from the wells treated with compound and OD570 (control) represents the absorbance from the wells in which no compound was added. For these compounds results are expressed as half maximal inhibitory concentration (IC50) values and the anticancer activity data of 1a-h, 2a-h and 3a-h are shown in Table 2.

HeLa (cervical cancer) = assay: MTT cytotoxicity assay, HeLa; assay type: cell-based; conditions: Homo sapiens, of drug treatment (footnote), average of three experiments
Excerpt: as §1, §2

[1] = tested on: A549, MCF-7, B16, HeLa and NIH3T3 cell lines; assay: MTT cytotoxicity assay, all the cell lines tested; assay type: cell-based; conditions: summary over A549, MCF-7, B16, HeLa, read-out: IC50 against all the cell lines tested
Excerpt: as §1, with “500×g.” for “500×g. Serial dilutions of cells were made from 1×10^6 to 1×10^3 cells per mL The cells were seeded in triplicate in a 96 well plate. The cells were seeded in triplicate in a 96 well plate.”
(§3) Where the OD570 (sample) corresponds to absorbance obtained from the wells treated with compound and OD570 (control) represents the absorbance from the wells in which no compound was added.

MCF-7 (breast cancer) = assay: MTT cytotoxicity assay, MCF-7; assay type: cell-based; conditions: Homo sapiens, MCF7, average of three experiments
Excerpt: as §1, §2

[2] = tested on: NIH3T3 (mouse embryonic fibroblast cell line); assay: MTT cytotoxicity assay, NIH3T3; assay type: cell-based; conditions: 48 h of drug treatment (footnote), average of three experiments
Excerpt: as §1, §2

A549 (lung cancer) = assay: MTT cytotoxicity assay, A549; assay type: cell-based; conditions: Homo sapiens, 48 h of drug treatment (footnote), average of three experiments
Excerpt: as §1, §3

Row | SMILES | IC50 (HeLa) [nM] | IC50 (A549) [nM] | IC50 (MCF-7) [nM] | IC50 (B16 (melanoma)) [nM] | IC50 (HeLa (cervical cancer)) [nM] | IC50 [1] [nM] | IC50 (MCF-7 (breast cancer)) [nM] | IC50 [2] [nM] | IC50 (A549 (lung cancer)) [nM] | melting point [°C]
1 | COc1cc(-c2nc(CN)cc3c2[nH]c2ccccc23)cc(OC)c1OC [Compound 21b, (1-(3,4,5-trimethoxyphenyl)-9H-pyrido[3,4-b]indol-3-yl)methanamine] | 21700 | 15100 | 18600 |  |  |  |  |  |  | 
2 | COc1ccc(-c2nc(CN)cc3c2[nH]c2ccccc23)cc1 [Compound 21c, (1-(4-methoxyphenyl)-9H-pyrido[3,4-b]indol-3-yl)methanamine] | 18600 | 17800 | 18900 |  |  |  |  |  |  | 
3 | NCc1cc2c([nH]c3ccccc32)c(-c2ccc(C(F)(F)F)cc2)n1 [Compound 21e] | 15800 | 15800 | 12000 |  |  |  |  |  |  | 
4 | COc1cccc2c1C(=O)c1c(O)c3c(c(O)c1C2=O)C[C@@](O)(C(=O)CO)C[C@@H]3O[C@H]1C[C@H](N)[C@H](O)[C@H](C)O1 [Doxorubicin, reference compound] |  |  |  | 670 ± 0.7 | 780 ± 0.5 | > 500 | 580 ± 0.2 | 1720 ± 0.8 |  | 
5 | COc1ccc(OC)c(/C=C/C(=O)NCc2cc3c([nH]c4ccccc43)c(-c3cc(OC)c(OC)c(OC)c3)n2)c1 [Compound 2e, (E)-3-(2,5-dimethoxyphenyl)-N-((1-(3,4,5-trimethoxyphenyl)-9H-pyrido[3,4-b]indol-3-yl)methyl)acrylamide] |  |  |  | 19.2 ± 1.4 | 25.09 ± 0.2 |  | 17.2 ± 0.6 | 39 ± 1.9 | 18.8 ± 1.4 | 148 to 150
6 | O=C(/C=C/c1cc(F)cc(F)c1)NCc1cc2c([nH]c3ccccc32)c(-c2cccc(F)c2)n1 [Compound 1d, (E)-3-(3,5-difluorophenyl)-N-((1-(3-fluorophenyl)-9H-pyrido[3,4-b]indol-3-yl)methyl)acrylamide] |  |  |  | 18.2 ± 0.3 | 23.6 ± 0.5 |  | 16.5 ± 0.6 | 36 ± 2.3 | 21 ± 1.2 | 215 to 220
7 | COc1ccc(-c2nc(CNC(=O)/C=C/c3ccc(F)cc3)cc3c2[nH]c2ccccc23)cc1 [Compound 3c, (E)-3-(4-fluorophenyl)-N-((1-(4-methoxyphenyl)-9H-pyrido[3,4-b]indol-3-yl)methyl)acrylamide] |  |  |  | 21.9 ± 0.3 | 22.8 ± 0.6 |  | 18.2 ± 0.7 | 36.9 ± 1.6 | 20.2 ± 1.3 | 145 to 148
8 | COc1ccc(-c2nc(CNC(=O)/C=C/c3cc(F)cc(F)c3)cc3c2[nH]c2ccccc23)cc1 [Compound 3d, (E)-3-(3,5-difluorophenyl)-N-((1-(4-methoxyphenyl)-9H-pyrido[3,4-b]indol-3-yl)methyl)acrylamide] |  |  |  | 23.87 ± 0.2 | 24.6 ± 0.4 |  | 17.2 ± 1.2 | 37.5 ± 1.3 | 20 ± 1.1 | 230 to 232
